System: 4T1 tumors
Experiment: orthotopic parent 4T1 TNBC tumor growth
Format: in vivo, BALB/c mice
Protocol: Namely, 4T1 tumors were treated with either PBS (PBS CONTROL), intraperitoneal (IP) bolus sorafenib (25 mg/kg BW/day) (IP BOLUS), 3 mg IP injected sorafenib crystals (IP CRYSTAL 3 MG), or sorafenib crystals (3 mg: SC CRYSTAL (3 MG); 10 mg: SC CRYSTAL (10 MG)) injected around developed tumors in the subcutaneous (SC) mammary fatpad. Furthermore, to truly test the utility of crystalline sorafenib in treating such an aggressive TNBC model, treatment was carried out retrospectively and only started once tumor volumes reached ˜225-250 mm^3. A positive control liquid-dissolved and daily injected drug treatment group was included, where mice were dosed with a daily bolus of 25 mg sorafenib/kg of mouse BW. […] This may be supported by our prior observation that in the IP compartment, where there is higher 10 liquid turnover as compared to the SC space, crystalline drugs usually have a faster kinetic of release over time.
4T1 or 4T1-luc2 cells were trypsinized using 0.25% Trypsin-EDTA, then diluted with the appropriate complete culture media and spun in a centrifuge at 300 g for 5 min. The supernatant was aspirated, and the pellet was re-suspended in serum-free RPMI 1640. The solution was centrifuged again, and the supernatant aspirated. Re-suspension, centrifugation, and aspiration was repeated once more. 5 mL of RPMI-1640 was then added to the pellet. 10 μL of the cell suspension was removed and mixed with 10 μL of Trypan blue stain 0.4% (ThermoFisher). Cells were counted with a Countess automated cell counter. Cell solutions were centrifuged one more time, the supernatant aspirated, and the pellet resuspended in the amount of RPMI-1640 required to achieve a concentration of 5×10^5 cells/200 μL of media. Tumor cells were then administered orthotopically in naive (and anesthetized) BALB/c mice into the right inguinal mammary fat pad 21 with 200 μL aliquots of the cell suspension, using an insulin syringe. Tumors were measured externally using a digital caliper, and volume was calculated (!″* (length * height) *−length * height). Except in the 4T1-luc2 trial, treatment began once tumors reached an average volume of 220-250 mm3. Experimental end point was deemed when solid tumors reached a volume of no more than 2000 mm3. Tumors were extracted and harvested, half stored in 4% paraformaldehyde diluted from 32% (Cat#50980495, Electron Microscopy Services) with DI H2O, and half frozen in liquid nitrogen, then stored at −80° C.
Once tumors had reached an average volume of ˜220-250 mm^3, mice were administered either subcutaneously or intraperitoneally with 3 or 10 mg of crystalline sorafenib, diameter ˜150-200 μm, suspended in 200 μL of sterile saline using an 18 g needle. […]

## CNC(=O)c1cc(Oc2ccc(NC(=O)Nc3ccc(Cl)c(C(F)(F)F)c3)cc2)ccn1 [crystalline sorafenib, sorafenib]
Single IP injection, 3 mg crystals
  tumor response (tumor volume): less response than 10 mg SC but more than a comparable 3 mg dose injected SC
Single local SC injection, 10 mg crystals, start at ~225-250 mm^3
  tumor response (tumor volume): tumor stasis
Single local SC injection, 2-3 mg crystals, start at ~225-250 mm^3
  tumor response (tumor volume): tumor delays only

Source: patent publication US20240366577A1, “CONTROLLED LONG-TERM DRUG DELIVERY AND METHODS THEREOF” (THE JOHNS HOPKINS UNIVERSITY, priority 2021, published 2024)
